Reference: patent US7473790B2 (Pfizer Inc., priority 2003, dated 2009)

Target: T1, HCV polymerase (Hepatitis C virus genotype 1b, UniProt P26663)
T1 construct: 2.5 pmoles (0.15 μg) HCV polymerase protein in a final volume of 75 μL
Assay: HCV polymerase primer/template-directed transcription assay (32P-GTP incorporation, filter binding)
Type: biochemical
Conditions: for IC50: recombinant HCV polymerase, 30 minutes at 30° C., concentration giving 50% inhibition of polymerase-directed transcription, read-out: IC50
Summary of the method: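 IC50s come from triplicate cpm, refit with an enzyme-concentration (30 nM) correction when under 200 nM. Reactions ran 30 min at 30° C in Tris pH 7.2 with MgCl2, 1 μM GTP spiked with α-32P-GTP, biotin-dG12 primer and poly(rC)300 template, with 1% DMSO. Incorporated label was collected on DE filtermats and counted.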

T1 sequence (P26663 2420-3010): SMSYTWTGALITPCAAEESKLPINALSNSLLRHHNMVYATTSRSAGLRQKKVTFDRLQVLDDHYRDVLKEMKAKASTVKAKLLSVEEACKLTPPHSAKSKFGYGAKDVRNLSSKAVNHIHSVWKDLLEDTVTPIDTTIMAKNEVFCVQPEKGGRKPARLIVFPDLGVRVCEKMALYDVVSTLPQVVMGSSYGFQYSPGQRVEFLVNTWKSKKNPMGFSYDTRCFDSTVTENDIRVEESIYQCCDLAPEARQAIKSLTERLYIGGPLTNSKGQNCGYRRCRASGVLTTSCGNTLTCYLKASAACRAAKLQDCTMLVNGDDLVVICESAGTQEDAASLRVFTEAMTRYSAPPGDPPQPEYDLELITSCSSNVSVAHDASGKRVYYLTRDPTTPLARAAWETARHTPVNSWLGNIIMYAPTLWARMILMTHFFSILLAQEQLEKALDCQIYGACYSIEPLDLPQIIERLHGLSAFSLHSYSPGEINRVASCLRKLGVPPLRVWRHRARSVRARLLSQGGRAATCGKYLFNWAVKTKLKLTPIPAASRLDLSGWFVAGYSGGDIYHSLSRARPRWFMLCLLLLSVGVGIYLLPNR

CCc1ccc(O)c(CCC2(C3CCCC3)CC(O)=C(Cc3nc4ncc(Cl)cn4n3)C(=O)O2)c1 (single isomer, unassigned; enantiomer 2) [A(172), Enantiomer 2 of 3-(6-Chloro-[1,2,4]triazolo[1,5-a]pyrimidin-2-ylmethyl)-6-cyclopentyl-6-[2-(5-ethyl-2-hydroxy-phenyl)-ethyl]-4-hydroxy-5,6-dihydro-pyran-2-one] was tested, and the IC50 was 6 nM.
CC(C)(C#N)c1ccc(CCC2(C3CCCC3)CC(O)=C(Cc3cn[nH]c3)C(=O)O2)cc1F (stereo not shown) [B(93), 2-(4-{2-[2-cyclopentyl-4-hydroxy-6-oxo-5-(1H-pyrazol-4-ylmethyl)-3,6-dihydro-2H-pyran-2-yl]ethyl}-2-fluorophenyl)-2-methylpropanenitrile] showed an IC50 of 90 nM.
Compound COC(=O)CC(=O)CC(=O)C(C)(C)Oc1ccc(CCC2(C3CCCC3)CC(=O)CC(=O)O2)cc1F (stereo not shown) [A(52), 6-{4-[2-(2-Cyclopentyl-4,6-dioxo-tetrahydro-pyran-2-yl)-ethyl]-2-fluoro-phenoxy}-6-methyl-3,5-dioxo-heptanoic acid methyl ester] has an IC50 of 1500 nM.
Compound COc1ccc(CCC2(C3CCCC3)CC(O)=C(Sc3nc4ncnc(O)c4[nH]3)C(=O)O2)cc1Cl (stereo not shown) [C(91), 3 6-[2-(3-chlor-4-methoxyphenyl)ethyl]-6-cyclopentyl-4-hydroxy-3-[(6-hydroxy-7H-purin-8-yl)thio]-5,6-dihydro-2H-pyran-2-one] has an IC50 of 40 nM.
For O=C1CC(=O)OC(CCc2cc(F)cc(F)c2)(C2CCCC2)C1 (stereo not shown) [A(122), 6-Cyclopentyl-6-[2-(3,5-difluoro-phenyl)-ethyl]-dihydro-pyran-2,4-dione], the IC50 was 31000 nM.
COc1ccc(CCC2(C3CCCC3)CC(O)=C(Cc3ncc[nH]3)C(=O)O2)cc1Cl (stereo not shown) [B(30), 6-[2-(3-Chloro-4-methoxy-phenyl)-ethyl]-6-cyclopentyl-4-hydroxy-3-(1H-imidazol-2-ylmethyl)-5,6-dihydro-pyran-2-one] was tested, and the IC50 was 2000 nM.
Compound O=C1CC(=O)OC(CCc2ccccn2)(C2CCCC2)C1 (stereo not shown) [A(82), 6-Cyclopentyl-6-(2-pyridin-2-yl-ethyl)-dihydro-pyran-2,4-dione] has an inhibition at 20 µM (@ 20 uM compound, given where IC50 was impractical to calculate, read-out: percent inhibition) of 11%.
Compound CC(C)(C#N)c1ccc(CCC2(C3CCCC3)CC(O)=C(Cc3cn4ccccc4n3)C(=O)O2)cc1F (stereo not shown) [A(103), 2-(4-{2-[2-cyclopentyl-4-hydroxy-5-(imidazo[1,2-a]pyridin-2-ylmethyl)-6-oxo-3,6-dihydro-2H-pyran-2-yl]ethyl}-2-fluorophenyl)-2-methylpropanenitrile] has an IC50 of 180 nM.
Compound CCc1cccc(CCC2(C3CCCC3)CC(O)=C(Cc3nc4nc(C)cc(C)n4n3)C(=O)O2)c1 (single isomer, unassigned) [J(7), 6-Cyclopentyl-3-(5,7-dimethyl-[1,2,4]triazolo[1,5-a]pyrimidin-2-ylmethyl)-6-[2-(3-ethyl-phenyl)-ethyl]-4-hydroxy-5,6-dihydro-pyran-2-one] has an IC50 of 10 nM.
Cc1cc(C(=O)NCC(C)(C)c2cccc(CCC3(C4CCCC4)CC(=O)CC(=O)O3)c2)oc1C (stereo not shown) [A(73), 4,5-Dimethyl-furan-2-carboxylic acid (2-{3-[2-(2-cyclopentyl-4,6-dioxo-tetrahydro-pyran-2-yl)-ethyl]-phenyl}-2-methyl-propyl)-amide] showed an IC50 of 3300 nM.
In the case of COC(=O)Nc1cc(CC2=C(O)CC(CCc3ccc(C(F)F)c(F)c3)(C3CCCC3)OC2=O)on1 (stereo not shown) [B(72), Methyl 5-[(6-cyclopentyl-6-{2-[4-(difluoromethyl)-3-fluorophenyl]ethyl}-4-hydroxy-2-oxo-5,6-dihydro-2H-pyran-3-yl)methyl]isoxazol-3-ylcarbamate], the IC50 is reported as 1400 nM.
In the case of COc1ccc(CCC2(C3CCCC3)CC(O)=C(Sc3nc(-c4ccccc4)cs3)C(=O)O2)cc1Cl (stereo not shown) [C(106), 6-[2-(3-chloro-4-methoxyphenyl)ethyl]-6-cyclopentyl-4-hydroxy-3-[(4-phenyl-1,3-thiazol-2-yl)thio]-5,6-dihydro-2H-pyran-2-one], the IC50 is reported as 240 nM.
Work on O=C1CC(=O)OC(CCc2cccc(Cc3nccs3)c2)(C2CCCC2)C1 (stereo not shown) [A(78), 6-Cyclopentyl-6-[2-(3-thiazol-2-ylmethyl-phenyl)-ethyl]-dihydro-pyran-2,4-dione] yielded an IC50 of 21000 nM.
Work on CC(C)(C#N)c1ccc(CCC2(C3CCCC3)CC(O)=C(Cc3nc4ncc(Cl)cn4n3)C(=O)O2)cc1Cl (single isomer, unassigned) [A(205), 2-(2-Chloro-4-{2-[5-(6-chloro-[1,2,4]triazolo[1,5-a]pyrimidin-2-ylmethyl)-2-cyclopentyl-4-hydroxy-6-oxo-3,6-dihydro-2H-pyran-2-yl]-ethyl}-phenyl)-2-methyl-propionitrile] yielded an IC50 of 1 nM.
In the case of Cc1cc(C)n2nc(CC3=C(O)CC(CCc4ccc(C(C)(C)C#N)c(Cl)c4)(C4CCCC4)OC3=O)nc2n1 (stereo not shown) [A(146), 2-(2-Chloro-4-{2-[2-cyclopentyl-5-(5,7-dimethyl-[1,2,4]triazolo[1,5-a]pyrimidin-2-ylmethyl)-4-hydroxy-6-oxo-3,6-dihydro-2H-pyran-2-yl]-ethyl}-phenyl)-2-methyl-propionitrile], the IC50 is reported as 2 nM.
CCc1cccc(CCC2(C3CCCC3)CC(=O)CC(=O)O2)c1 (single isomer, unassigned) [J(5), 6-Cyclopentyl-6-[2-(3-ethyl-phenyl)-ethyl]-dihydro-pyran-2,4-dione] was tested, and the IC50 was 1900 nM.
In the case of O=C1CC(=O)OC(CCC2=CCCCC2)(C2CCCC2)C1 (stereo not shown) [A(13), 6-(2-Cyclohex-1-enyl-ethyl)-6-cyclopentyl-dihydro-pyran-2,4-dione], the IC50 is reported as 63000 nM.
CCc1cc(CCC2(C3CCCC3)CC(O)=C(Cc3nc4ncc(Cl)cn4n3)C(=O)O2)ccc1O (racemic) [A(271), 3-(6-Chloro-[1,2,4]triazolo[1,5-a]pyrimidin-2-ylmethyl)-6-cyclopentyl-6-[2-(3-ethyl-4-hydroxy-phenyl)-ethyl]-4-hydroxy-5,6-dihydro-pyran-2-one] was tested, and the IC50 was 6 nM.
Work on CCc1cnc2nc(CC3=C(O)CC(CCc4cc(F)c(C(C)(C)C#N)c(F)c4)(C4CCCC4)OC3=O)nn2c1 (stereo not shown) [A(252), 2-(4-{2-[2-Cyclopentyl-5-(6-ethyl-[1,2,4]triazolo[1,5-a]pyrimidin-2-ylmethyl)-4-hydroxy-6-oxo-3,6-dihydro-2H-pyran-2-yl]-ethyl}-2,6-difluoro-phenyl)-2-methyl-propionitrile] yielded an IC50 of 10 nM.
N#CC1(c2ccc(CCC3(C4CCCC4)CC(=O)CC(=O)O3)cc2Cl)CC1 (stereo not shown) [A(149), 1-{2-Chloro-4-[2-(2-cyclopentyl-4,6-dioxo-tetrahydro-pyran-2-yl)-ethyl]-phenyl}-cyclopropanecarbonitrile] was tested, and the IC50 was 3900 nM.
With N#CC1(c2ccc(CCC3(C4CCCC4)CC(=O)CC(=O)O3)cc2F)CCC1 (stereo not shown) [A(237), 1-{4-[2-(2-Cyclopentyl-4,6-dioxo-tetrahydro-pyran-2-yl)-ethyl]-2-fluoro-phenyl}-cyclobutanecarbonitrile] the IC50 was 1000 nM.
Cc1cc(C)n2nc(CC3=C(O)CC(CCc4ccc(C5(C#N)CCCC5)c(F)c4)(C4CCCC4)OC3=O)nc2n1 (stereo not shown) [A(188), 1-(4-{2-[2-Cyclopentyl-5-(5,7-dimethyl-[1,2,4]triazolo[1,5-a]pyrimidin-2-ylmethyl)-4-hydroxy-6-oxo-3,6-dihydro-2H-pyran-2-yl]-ethyl}-2-fluoro-phenyl)-cyclopentanecarbonitrile] showed an IC50 of 6 nM.
